Data on five molecules can be found in paper PMC2932872 (Journal of agricultural and food chemistry, 2010).

“And” between values parts separate entries of the source, which are not always exact repeats. Equal entries are not always repeated. Some results are limits rather than exact numbers.

Data set [1] relates to SH-SY5Y cells. In words: Fate in uptake experiments: OP and degradation products in cell cytosol. To be noted: for uptake rate constant / amount of parent OP in the cytosol / total uptake (OP and degradation products): 1 μM exposure; for total uptake (OP and degradation products): 48 h (maximum); for OP associated with the membrane fraction (in words): uptake experiments; for Percentage of MPS in cell cytosol (per 10^6 cells) / Relative ratio of MPS in cell cytosol: 1 μM of OP. Type of data set: in vitro ADME, human.

A short description of data set [2]: Stability of ^14C-MPS and ^14C-MPO in culture media. To be noted: 1 μM; for OP recovered from the media unchanged: 72 h incubation in media, 37 °C. Type of data set: physicochemical.
In data set [3] the test system is SH-SY5Y cells. The data set can be described thus: MTT viability assay. To be noted: for cytotoxicity (in words): 50 μM, 48 and 72 h. Type of data set: cell-based, human.
Data set [4] concerns SH-SY5Y cells. The data set can be described thus: Preliminary uptake of ^14C-MPS and ^14C-MPO in SH-SY5Y cells. Type of data set: in vitro ADME, human. To be noted: 1 μM exposure; for share of total applied radioactivity that entered the cells: at the most.
Data set [5] is described as follows: Fate in uptake experiments: OP and degradation products in culture media. Type of data set: in vitro ADME. To be noted: cells exposed to 1 μM of OP.
For data set [6] the following is noted: cited from earlier work.
Data set [7] has as its target acetylcholinesterase (AChE, EC 3.1.1.7). To be noted: cited from earlier work.

With `COP(=O)(OC)Oc1ccc([N+](=O)[O-])cc1` [MPO, methyl paraoxon], in data set [1], the uptake rate constant was 0.025 h⁻¹; the “total uptake (OP and degradation products)” value stood at 1.76 nM/10^6 cells; the “OP associated with the membrane fraction (in words)” value was “negligible amount”. The “amount of parent OP in the cytosol” value in data set [1] (48 h) was 0.37 nM/10^6 cells. Besides, the “OP recovered from the media unchanged” value in data set [2] was “more than 50%”. In addition, the “cytotoxicity (in words)” value in data set [3] was “Some cytotoxicity”. The cytotoxicity entry in data set [3] (100 μM, all time points (24, 48, 72 h)) is listed as “at least 60%”. In data set [4], the “share of total applied radioactivity that entered the cells” value is on record as no more than 5%. Moreover, in data set [4] (maximum at 48 h), the “maximum level of uptake (total amount of OP inside cells)” value came to 46 nM.

Take `COP(=S)(OC)Oc1ccc([N+](=O)[O-])cc1` [MPS, OO, -dimethyl O-4-nitrophenyl phosphorothioate]: the “Relative ratio of MPS in culture media” value in data set [5] (24 h) is 74.3 ± 1.0; in data set [5] (48 h), 63.9 ± 0.1; in data set [5] (72 h), 52.9 ± 0.8. Besides, in data set [6], the “Log Po/w” value was 3.0. The molecule further returned an uptake rate constant in data set [1] of 0.054 h⁻¹. Also, the “amount of parent OP in the cytosol” value in data set [1] (48 h) was found to be 0.54 nM/10^6 cells. In data set [1], the “total uptake (OP and degradation products)” value is listed as 1.19 nM/10^6 cells. Also, the figures for the “Percentage of MPS in cell cytosol (per 10^6 cells)” value in data set [1] (24 h), in data set [1] (48 h) and in data set [1] (72 h) were 0.036 ± 0.001%, 0.054 ± 0.006% and 0.043 ± 0.004%, respectively. In addition, the “Relative ratio of MPS in cell cytosol” value is 45.3 ± 1.5 in data set [1] (24 h); 46 and 45.8 ± 2.0 in data set [1] (48 h, listed as 14C-MPS); 43.5 ± 1.8 in data set [1] (72 h). Besides, in data set [1], the “OP associated with the membrane fraction (in words)” value was “negligible amount”. Further, in data set [2], the “OP recovered from the media unchanged” value is “more than 50%”. In addition, the “^14C-MPO formed by oxidation in media” value in data set [2] (after 4 days in media) was “less than 1%”. Moreover, the “cytotoxicity (in words)” value in data set [3] is listed as “Some cytotoxicity”. In addition, in data set [3] (100 μM, 24 h), the “cell viability (in words)” value is “no significant decrease in viability”. The cytotoxicity in data set [3] (100 μM, 24 h) is 4–5% and 4%; in data set [3] (100 μM, 48 h) it was ~ 60% and 60%; in data set [3] (100 μM, 72 h), 90%. Further, the “share of total applied radioactivity that entered the cells” value in data set [4] is given as no more than 5%. Further, the “maximum level of uptake (total amount of OP inside cells)” value in data set [4] (maximum at 24 h) came to 13 nM.

In the case of `CCOP(=S)(OCC)Oc1ccc([N+](=O)[O-])cc1` [Parathion], in data set [7], the “IC50 (cholinesterase inhibition)” value is 10^−4 to 10^−5 M.

In the case of `CCOP(=O)(OCC)Oc1ccc([N+](=O)[O-])cc1` [ethyl paraoxon], the “Log Po/w” value in data set [6] was 1.6.

For `CCOP(=O)(OCC)Oc1ccc([N+](=O)[O-])cc1` [paraoxon], the IC50 (usually the concentration that inhibits the measured activity by half) in data set [7] (read-out: IC50 (inhibition of AChE)) is 10 nM.
